From ChEMBL document CHEMBL1151092, “Novel 4-substituted pyridine derivatives: Practical derivatization and biological profiles of reversible inhibitors” (Bioorg Med Chem Lett, 1997)
pIC50: −log10 of the molar value.

What was measured:
Type in all cases: tissue-based
[1] = biological target: Potassium-transporting ATPase (Sus scrofa, UniProt P19156); experiment: The compound was tested for its inhibitory activity against H+/K+ ATPase by using hog stomach membrane fractions (pH 6.4)
[2] = biological target: T1, Potassium-transporting ATPase (Sus scrofa) (UniProt P18434+P19156); experiment: The compound was tested for its inhibitory activity against H+/K+ ATPase by using hog stomach membrane fractions at 10 uM
[3] = biological target: T1, Potassium-transporting ATPase (Sus scrofa); experiment: The compound was tested for its inhibitory activity against H+/K+ ATPase by using hog stomach membrane fractions at 4 uM
[4] = biological target: T1, Potassium-transporting ATPase (Sus scrofa); experiment: The compound was tested for its inhibitory activity against H+/K+ ATPase by using hog stomach membrane fractions (pH 6.4) at 4 uM
[5] = biological target: T1, Potassium-transporting ATPase (Sus scrofa); experiment: The compound was tested for its inhibitory activity against H+/K+ ATPase by using hog stomach membrane fractions at 8 uM

Potassium-transporting ATPase, sequence (P18434 whole entry): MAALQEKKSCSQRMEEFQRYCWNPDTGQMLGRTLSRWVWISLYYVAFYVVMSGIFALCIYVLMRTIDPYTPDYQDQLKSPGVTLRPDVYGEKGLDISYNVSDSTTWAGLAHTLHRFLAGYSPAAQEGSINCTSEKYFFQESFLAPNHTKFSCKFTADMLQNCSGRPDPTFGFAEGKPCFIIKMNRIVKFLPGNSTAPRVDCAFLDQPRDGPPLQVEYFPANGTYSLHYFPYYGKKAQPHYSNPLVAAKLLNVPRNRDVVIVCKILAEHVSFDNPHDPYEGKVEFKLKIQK
Potassium-transporting ATPase, sequence (P19156 whole entry): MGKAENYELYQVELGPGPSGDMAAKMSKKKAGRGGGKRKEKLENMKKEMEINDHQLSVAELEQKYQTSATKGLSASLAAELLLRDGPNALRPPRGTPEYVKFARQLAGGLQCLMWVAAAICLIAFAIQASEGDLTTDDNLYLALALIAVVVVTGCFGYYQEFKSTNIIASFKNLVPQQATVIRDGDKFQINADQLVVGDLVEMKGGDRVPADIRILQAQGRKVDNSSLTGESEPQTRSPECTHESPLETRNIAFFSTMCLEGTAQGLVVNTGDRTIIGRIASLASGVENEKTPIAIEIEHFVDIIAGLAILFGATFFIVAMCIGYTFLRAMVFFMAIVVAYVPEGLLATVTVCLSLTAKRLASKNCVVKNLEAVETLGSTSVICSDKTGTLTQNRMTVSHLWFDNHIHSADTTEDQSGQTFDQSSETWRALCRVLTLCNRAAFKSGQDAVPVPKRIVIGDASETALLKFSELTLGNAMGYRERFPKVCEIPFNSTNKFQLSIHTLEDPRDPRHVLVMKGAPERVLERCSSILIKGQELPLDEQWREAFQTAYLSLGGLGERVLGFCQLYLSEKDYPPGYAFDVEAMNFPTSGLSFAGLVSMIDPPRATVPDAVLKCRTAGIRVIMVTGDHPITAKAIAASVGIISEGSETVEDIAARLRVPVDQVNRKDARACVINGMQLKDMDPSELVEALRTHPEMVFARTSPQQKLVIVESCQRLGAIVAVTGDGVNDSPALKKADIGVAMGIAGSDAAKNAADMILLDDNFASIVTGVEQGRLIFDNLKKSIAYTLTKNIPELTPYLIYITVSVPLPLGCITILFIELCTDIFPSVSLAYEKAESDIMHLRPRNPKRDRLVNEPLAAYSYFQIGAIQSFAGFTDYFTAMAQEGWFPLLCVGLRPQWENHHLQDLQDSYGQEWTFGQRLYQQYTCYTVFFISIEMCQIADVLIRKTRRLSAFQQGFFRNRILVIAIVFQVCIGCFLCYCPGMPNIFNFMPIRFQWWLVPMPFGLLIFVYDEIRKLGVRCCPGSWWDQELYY

| Structure (SMILES) | pIC50 [1] | also measured |
| --- | --- | --- |
| Cc1cnc(/C(=C\c2cccc3ccccc23)CO)cc1OCc1ccccc1O | 6.05 | – |
| Cc1cnc(C(CO)Cc2cccc3ccccc23)cc1OCC1CCCCC1 (stereo unspecified) | 5.51 | – |
| COc1ccccc1COc1cc(/C(=C\c2cccc3ccccc23)CO)ncc1C | 5.77 | – |
| Cc1cnc(C(CO)Cc2cccc3ccccc23)cc1Oc1ccccc1 (stereo unspecified) | – | inhibition [2]: 36% |
| Cc1cnc(C(CO)Cc2cccc3ccccc23)cc1OCc1ccccn1 (stereo unspecified) | – | inhibition [3]: 21% |
| Cc1cnc(C(CO)Cc2cccc3ccccc23)cc1OCc1ccccc1O (stereo unspecified) | 5.74 | – |
| Cc1cnc(C(CO)Cc2cccc3ccccc23)cc1OCC(C)(C)C (stereo unspecified) | 6.22 | – |
| CC#CCOc1cc(C(CO)Cc2cccc3ccccc23)ncc1C (stereo unspecified) | – | inhibition [4]: 22% |
| Cc1cnc(C(CO)Cc2cccc3ccccc23)cc1OCCOc1ccccc1 (stereo unspecified) | – | inhibition [5]: 27% |
| CC(C)=CCOc1cc(C(CO)Cc2cccc3ccccc23)ncc1C (stereo unspecified) | 5.52 | – |
| Cc1cnc(C(CO)Cc2cccc3ccccc23)cc1OC1CCCCC1 (stereo unspecified) | 6.30 | – |
